According to patent US20230414762A1, “PROSTATE-SPECIFIC MEMBRANE ANTIGEN (PSMA)-TARGETED PRODRUG FOR SELECTIVE KILLING OF CELLS […]” (The Johns Hopkins University, priority 2020, published 2023):
Where “and” joins values, the source holds several entries; their conditions need not be identical. Identical values can stand only once. Entries after “also recorded” stand apart in the source; their conditions may differ. Starred links: 1 amine or outer side, 2 acyl side, 3 side chain; linkers in the order of their positions; H or OH if unused. Non-standard residues stand in square brackets, D forms with d. Residues, ends and D or L forms follow the SMILES beside them. *: point of attachment. X1 = O=C(O)CC[C@H](NC(=O)N[C@@H](CCCCNC(=O)CCCCCCC(=O)*)C(=O)O)C(=O)O; Dolaproine = CO[C@@H]([C@@H]1CCCN1)[C@@H](C)C(=O)O; Dil = CC[C@H](C)[C@H](NC)[C@@H](CC(=O)O)OC; PABC = O=C(OCc1ccc(N[*:1])cc1)[*:2]; X2 = C[C@@H](N*)[C@@H](O)c1ccccc1; Cit = NC(=O)NCCC[C@H](N)C(=O)O; NMeV = CN[C@H](C(=O)O)C(C)C

What was measured:
recombinant cathepsin B = molecular target: T1, recombinant cathepsin B (Homo sapiens, UniProt P07858); experiment: Release of MMAE from prodrug by recombinant cathepsin B; format: biochemical; conditions: within 3 h of incubation with recombinant cathepsin B
T1 construct: purchased MilliporeSigma C8571
Procedure: Release of MMAE from prodrugs by a recombinant cathepsin B was analyzed using a modified method from previously published work. Dubowchik et al., 2002. Prodrug stock solutions (8 μL, 10 mM) were added to the 2 mL cathepsin B (MilliporeSigma, Cat #C8571, Burlington, MA, USA) containing buffer (25 mM acetate, 1 mM EDTA, pH 5, pre-warmed at 37° C.) at the final concentration of 30 nM (cathepsin B) and 40 μM (prodrug). Aliquots (200 μL) were periodically removed and enzymatic activity was stopped by the addition of thioprotease inhibitor E-64 (30 nM in the final solution, MilliporeSigma, Cat #E3132). The samples were centrifuged and the supernatants were analyzed by HPLC (Waters 600 E coupled with Varian prostar detector, Milford, MA, USA). Samples were prepared at 0, 10, 20, 30, 60, 90, and 120 min. Experiments were performed in triplicate.

[1] = Serum stability in murine serum (HPLC); format: in vitro ADME, mouse
Procedure: Serum stability of prodrugs was analyzed using a modified method from previously published work. Chu et al., 2012. Prodrug stock solution (8 μL, 10 mM) was incubated with 100% mouse serum (final concentration of the serum was 80% after the mixing with prodrug solution) at 37° C. Aliquots (50 μL) were periodically removed at 2, 4, 8, 24, and 48 h, and diluted with cold ice CH3OH (100 μL) to precipitate proteins. The samples were centrifuged, and the supernatants were analyzed by HPLC. Stability was calculated based on the peak area of the prodrug at each time point. Experiments were performed in triplicate.

[2] = Serum stability in human serum; format: in vitro ADME
Procedure: Prior to in vivo potency, the stability of SBPD-1 and SBPD-2 in murine serum was evaluated. While 90% of SBPD-2 remained intact for 48 h in murine serum (FIG. 3a), SBPD-1 was metabolized more quickly in murine serum (FIG. 3a). […] SBPD-1, however, was stable in human serum (FIG. 3a). It has been reported that the valine-citrulline linker is stable in human and monkey serum, but that it can be hydrolyzed in mouse plasma via extracellular carboxylesterase 1c. Dorywalska et al., 2016; Anami et al., 2018. Based on those stability results, small, fractionated doses were applied for the murine efficacy study to avoid systemic toxicity that could affect the overall survival of the test animals.

PSMA+PC3 PIP tumors = experiment: Subcutaneous xenograft efficacy, PSMA+ PC3 PIP tumors; format: in vivo, NSG mice; conditions: for median survival time: 4-fold tumor volume scored as death
PSMA− PC3 flu tumors = experiment: Subcutaneous xenograft efficacy, PSMA- PC3 flu tumors; format: in vivo, NSG mice
[3] = In vivo toxicity in healthy mice (weight, survival, histopathology); parameters: species or system C57BL/6 mice
Procedure: (§1) The potential toxicity of SBPD-1 was evaluated in immunocompetent animals. MMAE (80 μg/kg), SBPD-1 (160 μg/kg), and 5% DMSO were administered to healthy C57BL/6 mice (n=5). Animals were monitored for 80 days after initiation of administration. […] Lung, liver, kidneys, salivary and lacrimal glands were removed from all tested animals at Day 80 after initiation of SBPD-1 treatment. […] Peripheral blood also was obtained from mice injected with vehicle, SBPD-1, and healthy untreated animals, and prepared serum for chemistry studies (n=5).
(§2) Male C57BL/6 mice were purchased from Jackson Laboratory. Ten-week-old mice were injected with the indicated doses of MMAE (formulated in 5% DMSO), SBPD-1 (formulated in saline) or 5% DMSO intraperitoneally (daily for 30 days, n=5). Animals were monitored daily for weight changes and other abnormalities for 80 days. Animals were euthanized in a CO2 chamber at day 80, and blood, lung, liver, kidney, salivary gland, and lacrimal gland were collected for complete blood counts, blood chemistry, and histopathological analyses. Complete blood counts including white blood cells (WBC), red blood cells (RBC), hemoglobin (HGB), hematocrit (HCT), mean corpuscular volume (MCV), mean corpuscular hemoglobin (MCH), mean corpuscular hemoglobin concentration (MCHC), and platelet (PLT) were measured using scil Vet ABC™ Hematology Analyzer (scil animal care company, Gurnee, IL). Blood chemistry parameters including blood urea nitrogen (BUN), glucose (GLU), Alkaline Phosphatase (ALP), total protein (T-Pro), Alanine aminotransferase (ALT) and Creatinine (Cre) were measured with Spotchem EZ chemistry analyzer (Arkray USA, Edina, MN). Hematoxylin and eosin slides were generated for five organs and examined by certified veterinary pathologist.

[4] = Blood chemistry in healthy mice; format: in vivo; conditions: C57BL/6 mice
Procedure: as §1, §2

[5] = Complete blood count in healthy mice; format: in vivo; conditions: C57BL/6 mice, 0.16 mg/kg
Procedure: as §2

PSMA+PC3/ML/PSMA cells = experiment: Experimental metastatic model of PSMA-expressing PC
Procedure: A PSMA-expressing experimental metastatic model of human PC was used to evaluate efficacy of SBPD-1 on established metastatic tumors. […] PSMA+PC3/ML/PSMA cells were administered to NSG mice intravenously (IV) and tumors were allowed to establish for four weeks. PC3/ML/PSMA cells express firefly luciferase as an imaging reporter to allow tumor development to be monitored via weekly bioluminescence imaging (BLI).
For the metastatic model, NSG mice were injected with 0.75 million PC3/ML/PSMA cells via the tail vein. […] BLI was performed weekly using the IVIS Spectrum in vivo imaging system (Perkin Elmer, Waltham, MA).

[6] = Urinalyses from subcutaneous xenograft model (urine reagent strips); conditions: for urine protein / urine specific gravity: individual mice

CC[C@H](C)[C@@H]([C@@H](CC(=O)N1CCC[C@H]1[C@H](OC)[C@@H](C)C(=O)N[C@H](C)[C@@H](O)c1ccccc1)OC)N(C)C(=O)[C@@H](NC(=O)[C@H](C(C)C)N(C)C(=O)OCc1ccc(NC(=O)[C@H](CCCNC(N)=O)NC(=O)[C@@H](NC(=O)CCCCCCC(=O)NCCCC[C@H](NC(=O)N[C@@H](CCC(=O)O)C(=O)O)C(=O)O)C(C)C)cc1)C(C)C [SBPD-1, (6S,9S,24S,28S)-1-Amino-6-((4-((5S,8S,11S,12R)-11-((S)-sec-butyl)-12-(2-((S)-2-((1R,2R)-3-(((1S,2R)-1-hydroxy-1-phenylpropan-2-yl)amino)-1-methoxy-2-methyl-3-oxopropyl)pyrrolidin-1-yl)-2-oxoethyl)-5,8-diisopropyl-4,10-dimethyl-3,6,9-trioxo-2,13-dioxa-4,7,10-triazatetradecyl)phenyl)carbamoyl)-9-isopropyl-1,8,11,18,26-pentaoxo-2,7,10,19,25,27-hexaazatriacontane-24,28,30-tricarboxylic acid] (X1-V[Cit][PABC][NMeV]V[Dil][Dolaproine]-X2)
MMAE released (recombinant cathepsin B): 80% | intact in serum ([1]; 8 h of incubation): more than 80% | fraction representing parent compound ([1]; 24 h): less than half | degradation of prodrug ([1]; by 48 h of incubation): the majority of the prodrug was fully degraded | stability in human serum [2]: stable | median survival time (PSMA+PC3 PIP tumors; 20 μg/kg daily IP for 30 days): 17 days | time until previously undetectable tumors could be re-measured (PSMA+PC3 PIP tumors; 40 μg/kg): Approximately one week | median survival time (PSMA+PC3 PIP tumors; 40 μg/kg daily IP for 30 days): 54 days | time until re-appearance of tumors (PSMA+PC3 PIP tumors; 80 μg/kg): Two weeks | median survival time (PSMA+PC3 PIP tumors; 80 μg/kg daily IP for 30 days): 69 days | tumors at completion of treatment (PSMA+PC3 PIP tumors; doses of 40 and 80 μg/kg): undetectable | median survival time (PSMA− PC3 flu tumors; 20 μg/kg daily IP for 30 days): 15 days | median survival time (PSMA− PC3 flu tumors; 40 μg/kg daily IP for 30 days): 15 days | median survival time (PSMA− PC3 flu tumors; 80 μg/kg daily IP for 30 days): 20 days | histopathological examination of lung, liver, kidneys, salivary and lacrimal glands ([3]; Day 80 after initiation of treatment, 160 μg/kg): no tissue damage | signs of toxicity / weight ([3]; healthy C57BL/6 mice, 160 μg/kg IP daily for 30 days, monitored 80 days): did not show any signs of toxicity; also recorded: did not induce toxicity | BUN, creatinine, glucose, ALP, T-Pro, ALT compared with untreated mice ([4]; 160 μg/kg): did not show differences | ALP ([4]; 0.16 mg/kg, individual mice): 94 IU/L (2×) and 108 IU/L and 96 IU/L and 85 IU/L | ALT ([4]; 0.16 mg/kg, individual mice): 21 IU/L and 31 IU/L and 22 IU/L and 14 IU/L and 28 IU/L | BUN ([4]; 0.16 mg/kg, individual mice): 28 mg/dl (2×) and 37 mg/dl (2×) and 27 mg/dl | Cre ([4]; 0.16 mg/kg, individual mice): 1 mg/dl and 1.2 mg/dl and 1.1 mg/dl (2×) and 0.8 mg/dl | GLU ([4]; 0.16 mg/kg, individual mice): 188 mg/dL and 248 mg/dL and 285 mg/dL and 219 mg/dL and 189 mg/dL | T-Pro ([4]; 0.16 mg/kg, individual mice): 6.1 g/dl and 6.2 g/dl and 5.9 g/dl (2×) and 6 g/dl | complete blood counts, abnormalities [5]: no abnormalities except for lower white blood cell count | HCT ([5]; individual mice): 36% and 36.6% and 32.2% and 35.6% and 35.8% | HGB ([5]; individual mice): 13.4 g/dl (2×) and 13.8 g/dl and 12.4 g/dl and 14 g/dl | MCH ([5]; individual mice): 33.8 pg (3×) and 35 pg and 34.8 pg | MCHC ([5]; individual mice): 75.8 g/dl (3×) and 76.4 g/dl and 78.2 g/dl | MCV ([5]; individual mice): 90 μm^3 (4×) and 92 μm^3 | PLT ([5]; individual mice): 1280 10^3/mm^3 (2×) and 1068 10^3/mm^3 and 1132 10^3/mm^3 and 1262 10^3/mm^3 | RBC ([5]; individual mice): 8.08 10^6/mm^3 and 8.16 10^6/mm^3 and 7.02 10^6/mm^3 and 7.98 10^6/mm^3 and 8.02 10^6/mm^3 | WBC ([5]; individual mice): 1.6 10^3/mm^3 (2×) and 1.8 10^3/mm^3 and 1.4 10^3/mm^3 and 2 10^3/mm^3 | median survival (PSMA+PC3/ML/PSMA cells; 40 μg/kg daily IP for 30 days): 47 days | median survival (PSMA+PC3/ML/PSMA cells; 80 μg/kg daily IP for 30 days): 56 days | median survival (PSMA+PC3/ML/PSMA cells; 160 μg/kg daily IP for 30 days): 58 days | urine protein ([6]; Day 9, PC3/PIP, 0.02 mg/kg): 30 | urine specific gravity ([6]; Day 9, PC3/PIP, 0.02 mg/kg): 1.025 (3×) and 1.02 (2×) | urine protein ([6]; Day 9, PC3/PIP, 0.04 mg/kg): 30 (3×) and trace (2×) | urine specific gravity ([6]; Day 9, PC3/PIP, 0.04 mg/kg): 1.025 | urine protein ([6]; Day 9, PC3/PIP, 0.08 mg/kg): trace and 30 (4×) | urine specific gravity ([6]; Day 9, PC3/PIP, 0.08 mg/kg): 1.025 | urine protein ([6]; Day 9, PC3/flu, 0.02 mg/kg): 30 | urine specific gravity ([6]; Day 9, PC3/flu, 0.02 mg/kg): 1.025 (4×) and 1.02 | urine protein ([6]; Day 9, PC3/flu, 0.04 mg/kg): 30 | urine specific gravity ([6]; Day 9, PC3/flu, 0.04 mg/kg): 1.025 | urine protein ([6]; Day 9, PC3/flu, 0.08 mg/kg): 300 (2×) and 30 (2×) and 100 | urine specific gravity ([6]; Day 9, PC3/flu, 0.08 mg/kg): 1.025 | urine protein ([6]; Day 20, PC3/PIP, 0.02 mg/kg): 30 | urine specific gravity ([6]; Day 20, PC3/PIP, 0.02 mg/kg): 1.025 | urine protein ([6]; Day 20, PC3/PIP, 0.04 mg/kg): 30 | urine specific gravity ([6]; Day 20, PC3/PIP, 0.04 mg/kg): 1.025 | urine protein ([6]; Day 20, PC3/PIP, 0.08 mg/kg): 30 (3×) and 100 (2×) | urine specific gravity ([6]; Day 20, PC3/PIP, 0.08 mg/kg): 1.025 | urine protein ([6]; Day 20, PC3/flu, 0.02 mg/kg): 30 | urine specific gravity ([6]; Day 20, PC3/flu, 0.02 mg/kg): 1.025 (3×) and 1.01 and 1.03 | urine protein ([6]; Day 20, PC3/flu, 0.04 mg/kg): 30 | urine specific gravity ([6]; Day 20, PC3/flu, 0.04 mg/kg): 1.025 (2×) and 1.03 (2×) | urine protein ([6]; Day 20, PC3/flu, 0.08 mg/kg): 300 (2×) and 30 (3×) | urine specific gravity ([6]; Day 20, PC3/flu, 0.08 mg/kg): 1.025 | urine protein level and specific gravity (acute renal toxicity) ([6]; all test animals, Days 9 and 20, any dose tested): normal

CC[C@H](C)[C@@H](C(CC(=O)N1CCC[C@H]1[C@H](OC)[C@@H](C)C(=O)N[C@H](C)[C@@H](O)c1ccccc1)OC)N(C)C(=O)[C@@H](NC(=O)[C@H](C(C)C)N(C)C(=O)CC[C@H](NC(=O)CCCCCCC(=O)NCCCC[C@H](NC(=O)N[C@@H](CCC(=O)O)C(=O)O)C(=O)O)C(=O)O)C(C)C (stereo partly drawn) [SBPD-2, (4S,7S,10S,15S,30S,34S)-4-((S)-Sec-butyl)-3-(2-((S)-2-((1R,2R)-3-(((1S,2R)-1-hydroxy-1-phenylpropan-2-yl)amino)-1-methoxy-2-methyl-3-oxopropyl)pyrrolidin-1-yl)-2-oxoethyl)-7,10-diisopropyl-5,11-dimethyl-6,9,12,17,24,32-hexaoxo-2-oxa-5,8,11,16,25,31,33-heptaazahexatriacontane-15,30,34,36-tetracarboxylic acid]
remained intact ([1]; 48 h): 90%
